According to patent US20200345725A1, “Methods and Compositions for Treating Cancer” (Omeros Corporation, priority 2019, published 2020):
Marks after values point to notes of the source that are not given here.

Legend:
ADBR2 = target: T1, ADBR2 (Homo sapiens, UniProt P07550); test: CRE-Luc reporter assay with control receptor ADBR2; format: cell-based
T1 construct: host or cells: HEK293 or CHO cell lines (ATCC)

human PBMCs = test: Th1 cytokines in supernatants of stimulated human PBMC, GPR174 inhibitor with adenosine pathway inhibitors (Examples 15, 18-22); format: cell-based; conditions: for IFN-γ fold increase (FIG. 44): Example 15; for IFN-γ, ratio relative to vehicle control (Veh column) / IL-2, ratio relative to vehicle control (Veh column) / TNF, ratio relative to vehicle control (Veh column): Cmpd 10 1, ZM 0.1, PBF 0.1, SCH 0.2 μM, ADA 0.75 μg/mL; for IFN-γ, ratio relative to vehicle control (MRS) / IL-2, ratio relative to vehicle control (MRS column) / TNF, ratio relative to vehicle control (MRS column): MRS-1754 1 μM added to the agent(s) of the label, label MRS = MRS alone
Procedure, shortened: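 Human donor PBMCs (1×10^6 cells/well) were stimulated with 1 µg/mL anti-CD3 (UCHT1) plus 0.1 µg/mL anti-CD28 (CD28.2) for 24 h with test agents. IFN-γ, IL-2, TNF and GM-CSF in supernatants were measured by ELISA, Legendplex or MSD. Fold changes were compared by one-way ANOVA with Tukey correction.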

[1] = 12 donors, Cmpd 10 1-2 μM, ZM 0.2-1 μM
[2] = 12 donors, Cmpd 10 1-2 μM, ZM 0.2-1 μM, 24 h
[3] = donor 1, 24 h, Cmp 10 2 μM alone
[4] = donor 1, 24 h, Cmp 10 2 μM alone, listed as Cmp 10
[5] = donor 1, SCH-58261 0.2 μM, alone (label SCH) or with Cmp 10 2 μM (label Cmp 10)
[6] = donor 1, SCH-58261 0.6 μM, alone (label SCH) or with Cmp 10 2 μM (label Cmp 10)
[7] = donor 1, SCH-58261 2 μM, alone (label SCH) or with Cmp 10 2 μM (label Cmp 10)
[8] = donor 2, Cmpd 10 1 μM alone, listed as Cmpd 10
[9] = donor 2, PBF-509 0.1 μM, alone (label PBF) or with Cmpd 10 1 μM (label Cmpd 10)
[10] = donor 2, PBF-509 0.1 μM, alone (label PBF) or with Cmpd 10 1 μM (label Cmpd 10), listed as Cmpd 10
[11] = donor 2, ZM-241385 0.2 μM, alone (label ZM) or with Cmpd 10 1 μM (label Cmpd 10)
[12] = donor 2, ZM-241385 0.2 μM, alone (label ZM) or with Cmpd 10 1 μM (label Cmpd 10), listed as Cmpd 10
[13] = donor 3, no MRS, listed as Cmpd 10
[14] = donor 3, PBF-509 0.2 μM, alone (label PBF) or with Cmpd 10 1 μM (label Cmpd 10)
[15] = donor 3, PBF-509 0.2 μM, alone (label PBF) or with Cmpd 10 1 μM (label Cmpd 10), listed as Cmpd 10
[16] = donor 3, ZM-241385 0.2 μM, alone (label ZM) or with Cmpd 10 1 μM (label Cmpd 10)
[17] = donor 3, ZM-241385 0.2 μM, alone (label ZM) or with Cmpd 10 1 μM (label Cmpd 10), listed as Cmpd 10
[18] = donor 6, no MRS, listed as Cmpd 10
[19] = donor 7, high and low concentrations, ZM 0.1 μM
[20] = donor 7, no ZM, 0.3 μM (compound 20: 3 μM)
[21] = donor 7, no ZM, 1 μM (compound 20: 10 μM)
[22] = donor 7, with ZM-241385 0.1 μM, 0.3 μM (compound 20: 3 μM)
[23] = donor 7, with ZM-241385 0.1 μM, 1 μM (compound 20: 10 μM), label ZM = ZM alone

T1 sequence (P07550 whole entry): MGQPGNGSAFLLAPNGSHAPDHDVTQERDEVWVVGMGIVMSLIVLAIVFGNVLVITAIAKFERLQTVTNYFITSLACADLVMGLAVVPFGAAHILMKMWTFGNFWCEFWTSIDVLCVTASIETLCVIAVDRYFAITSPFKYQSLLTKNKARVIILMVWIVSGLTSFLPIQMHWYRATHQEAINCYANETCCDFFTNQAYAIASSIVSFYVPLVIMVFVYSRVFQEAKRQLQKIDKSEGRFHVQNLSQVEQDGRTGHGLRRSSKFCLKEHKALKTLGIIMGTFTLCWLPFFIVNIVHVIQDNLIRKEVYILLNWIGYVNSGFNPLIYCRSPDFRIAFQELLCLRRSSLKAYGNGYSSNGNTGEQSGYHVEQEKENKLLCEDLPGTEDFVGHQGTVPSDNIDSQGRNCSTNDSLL

CC1CCN(c2cc(N3CCN(S(=O)(=O)c4ccccc4)CC3)c([N+](=O)[O-])cc2F)CC1 [compound 10]
Gs pathway in the presence of ADBR2 (CRE-Luc reporter) (ADBR2): did not inhibit | GM-CSF fold-change (FC) vs ZM alone (human PBMCs; 9 donors, Cmpd 10 1-2 μM, ZM 0.2-1 μM): 1.1 fold | GM-CSF mean fold-change (FC) vs vehicle (human PBMCs; 9 donors, Cmpd 10 1-2 μM, ZM 0.2-1 μM, 24 h): 1.4 fold | IFN-γ fold-change (FC) vs ZM alone (human PBMCs; [1]): 1.3 fold | IL-2 fold-change (FC) vs ZM alone (human PBMCs; [1]): 1.2 fold | TNF fold-change (FC) vs ZM alone (human PBMCs; [1]): 1.3 fold | IFN-γ mean fold-change (FC) vs vehicle (human PBMCs; [2]): 2.8 fold | IL-2 mean fold-change (FC) vs vehicle (human PBMCs; [2]): 1.7 fold | TNF mean fold-change (FC) vs vehicle (human PBMCs; [2]): 2.7 fold | IFN-γ fold increase (FIG. 44) (human PBMCs; 24 h, ZM241385 1 μM, alone (label ZM241385) or with compound 10 3 μM (label compound 10)): 9.3 fold | IFN-γ fold increase (FIG. 44) (human PBMCs; 24 h, ZM241385 10 μM, alone (label ZM241385) or with compound 10 3 μM (label compound 10)): 17.1 fold | IFN-γ fold increase (FIG. 44) (human PBMCs; 24 h, compound 10 3 μM alone): 2.3 fold | IFN-γ fold-change relative to vehicle control (human PBMCs; [3]): 4.9 fold | IL-2 fold-change relative to vehicle control (human PBMCs; [3]): no effect | TNF fold-change relative to vehicle control (human PBMCs; [3]): 4.2 fold | IFN-γ fold-change relative to vehicle control (human PBMCs; [4]): 4.9* fold | IL-2 fold-change relative to vehicle control (human PBMCs; [4]): 0.9 fold | TNF fold-change relative to vehicle control (human PBMCs; [4]): 4.2* fold | IFN-γ fold-change relative to vehicle control (human PBMCs; [5]): 11.8* fold | IL-2 fold-change relative to vehicle control (human PBMCs; [5]): 1.5* fold | TNF fold-change relative to vehicle control (human PBMCs; [5]): 14.2* fold | IFN-γ fold-change relative to vehicle control (human PBMCs; [6]): 11.3* fold | IL-2 fold-change relative to vehicle control (human PBMCs; [6]): 1.4* fold | TNF fold-change relative to vehicle control (human PBMCs; [6]): 15.9* fold | IFN-γ fold-change relative to vehicle control (human PBMCs; [7]): 11.0* fold | IL-2 fold-change relative to vehicle control (human PBMCs; [7]): 1.4* fold | TNF fold-change relative to vehicle control (human PBMCs; [7]): 14.7* fold | IFN-γ fold-change relative to vehicle control (human PBMCs; donor 2, Cmpd 10 1 μM alone): 1.6 fold | IL-2 fold-change relative to vehicle control (human PBMCs; donor 2, Cmpd 10 1 μM alone): 1.1 fold | TNF fold-change relative to vehicle control (human PBMCs; donor 2, Cmpd 10 1 μM alone): 1.5 fold | IFN-γ fold-change relative to vehicle control (human PBMCs; [8]): 1.6* fold | TNF fold-change relative to vehicle control (human PBMCs; [8]): 1.5* fold | IFN-γ fold-change relative to vehicle control (human PBMCs; [9]): 3.5 fold | IL-2 fold-change relative to vehicle control (human PBMCs; [9]): 2.0 fold | TNF fold-change relative to vehicle control (human PBMCs; [9]): 2.3 fold | IFN-γ fold-change relative to vehicle control (human PBMCs; [10]): 3.5* fold | IL-2 fold-change relative to vehicle control (human PBMCs; [10]): 2.0* fold | TNF fold-change relative to vehicle control (human PBMCs; [10]): 2.3* fold | IFN-γ fold-change relative to vehicle control (human PBMCs; [11]): 8.8 fold | IL-2 fold-change relative to vehicle control (human PBMCs; [11]): 2.6 fold | TNF fold-change relative to vehicle control (human PBMCs; [11]): 4.0 fold | IFN-γ fold-change relative to vehicle control (human PBMCs; [12]): 8.8* fold | IL-2 fold-change relative to vehicle control (human PBMCs; [12]): 2.6* fold | TNF fold-change relative to vehicle control (human PBMCs; [12]): 4.0* fold | IFN-γ, MRS/Veh: ratio in the presence vs. the absence of MRS-1754 (human PBMCs; donor 3): 0.8* | IL-2, MRS/Veh: ratio in the presence vs. the absence of MRS-1754 (human PBMCs; donor 3): 1.5* | TNF, MRS/Veh: ratio in the presence vs. the absence of MRS-1754 (human PBMCs; donor 3): 1.1 | IFN-γ, ratio relative to vehicle control (Veh column) (human PBMCs; donor 3, no MRS): 2.8 fold | IL-2, ratio relative to vehicle control (Veh column) (human PBMCs; donor 3, no MRS): 2.9 fold | TNF, ratio relative to vehicle control (Veh column) (human PBMCs; donor 3, no MRS): 4.1 fold | IFN-γ, ratio relative to vehicle control (Veh column) (human PBMCs; [13]): 2.8* fold | IL-2, ratio relative to vehicle control (Veh column) (human PBMCs; [13]): 2.9* fold | TNF, ratio relative to vehicle control (Veh column) (human PBMCs; [13]): 4.1* fold | IFN-γ fold-change relative to vehicle control (human PBMCs; donor 3, Cmpd 10 1 μM alone): 1.2 fold | IL-2 fold-change relative to vehicle control (human PBMCs; donor 3, Cmpd 10 1 μM alone): 1.1 fold | TNF fold-change relative to vehicle control (human PBMCs; donor 3, Cmpd 10 1 μM alone): 1.5 fold | TNF fold-change relative to vehicle control (human PBMCs; donor 3, Cmpd 10 1 μM alone, listed as Cmpd 10): 1.5* fold | IFN-γ, ratio relative to vehicle control (MRS) (human PBMCs; donor 3): 2.2* fold | IL-2, ratio relative to vehicle control (MRS column) (human PBMCs; donor 3): 4.3 fold | TNF, ratio relative to vehicle control (MRS column) (human PBMCs; donor 3): 4.6* fold | IL-2, ratio relative to vehicle control (MRS column) (human PBMCs; donor 3, listed as Cmpd 10): 4.3* fold | IFN-γ fold-change relative to vehicle control (human PBMCs; [14]): 1.8 fold | IL-2 fold-change relative to vehicle control (human PBMCs; [14]): 1.6 fold | TNF fold-change relative to vehicle control (human PBMCs; [14]): 2.9 fold | IFN-γ fold-change relative to vehicle control (human PBMCs; [15]): 1.8* fold | IL-2 fold-change relative to vehicle control (human PBMCs; [15]): 1.6* fold | TNF fold-change relative to vehicle control (human PBMCs; [15]): 2.9* fold | IFN-γ fold-change relative to vehicle control (human PBMCs; [16]): 2.5 fold | IL-2 fold-change relative to vehicle control (human PBMCs; [16]): 2.3 fold | TNF fold-change relative to vehicle control (human PBMCs; [16]): 4.6 fold | IFN-γ fold-change relative to vehicle control (human PBMCs; [17]): 2.5* fold | IL-2 fold-change relative to vehicle control (human PBMCs; [17]): 2.3* fold | TNF fold-change relative to vehicle control (human PBMCs; [17]): 4.6* fold | IFN-γ, MRS/Veh: ratio in the presence vs. the absence of MRS-1754 (human PBMCs; donor 6): 1.1 | IL-2, MRS/Veh: ratio in the presence vs. the absence of MRS-1754 (human PBMCs; donor 6): 1.4* | TNF, MRS/Veh: ratio in the presence vs. the absence of MRS-1754 (human PBMCs; donor 6): 1.4* | IFN-γ, ratio relative to vehicle control (Veh column) (human PBMCs; donor 6, no MRS): did not significantly increase | IL-2, ratio relative to vehicle control (Veh column) (human PBMCs; donor 6, no MRS): 1.7 fold | TNF, ratio relative to vehicle control (Veh column) (human PBMCs; donor 6, no MRS): 1.4 fold | IFN-γ, ratio relative to vehicle control (Veh column) (human PBMCs; [18]): 1.2 fold | IL-2, ratio relative to vehicle control (Veh column) (human PBMCs; [18]): 1.7* fold | TNF, ratio relative to vehicle control (Veh column) (human PBMCs; [18]): 1.4* fold | IFN-γ, ratio relative to vehicle control (MRS) (human PBMCs; donor 6): 1.3* fold | IL-2, ratio relative to vehicle control (MRS column) (human PBMCs; donor 6): 1.4 fold | TNF, ratio relative to vehicle control (MRS column) (human PBMCs; donor 6): 2.1 fold | IL-2, ratio relative to vehicle control (MRS column) (human PBMCs; donor 6, listed as Cmpd 10): 2.3* fold | TNF, ratio relative to vehicle control (MRS column) (human PBMCs; donor 6, listed as Cmpd 10): 2.1* fold | synergy with ZM on GM-CSF (greater than the sum of the increases with each inhibitor alone) (human PBMCs; [19]): synergized with ZM | synergy with ZM on IFN-γ (greater than the sum of the increases with each inhibitor alone) (human PBMCs; [19]): synergized with ZM | synergy with ZM on IL-2 (greater than the sum of the increases with each inhibitor alone) (human PBMCs; [19]): synergized with ZM | synergy with ZM on TNF (greater than the sum of the increases with each inhibitor alone) (human PBMCs; [19]): synergized with ZM | GM-CSF, ratio relative to vehicle control (human PBMCs; [20]): 3.6* | IFN-γ, ratio relative to vehicle control (human PBMCs; [20]): 2.1* | IL-2, ratio relative to vehicle control (human PBMCs; [20]): 1.7* | TNF, ratio relative to vehicle control (human PBMCs; [20]): 2.2* | GM-CSF, ratio relative to vehicle control (human PBMCs; [21]): 3.1* | IFN-γ, ratio relative to vehicle control (human PBMCs; [21]): 2.2* | IL-2, ratio relative to vehicle control (human PBMCs; [21]): 1.6* | TNF, ratio relative to vehicle control (human PBMCs; [21]): 2.2* | GM-CSF, ratio relative to vehicle control (human PBMCs; [22]): 6.2* | IFN-γ, ratio relative to vehicle control (human PBMCs; [22]): 3.7* | IL-2, ratio relative to vehicle control (human PBMCs; [22]): 2.0* | TNF, ratio relative to vehicle control (human PBMCs; [22]): 3.6* | GM-CSF, ratio relative to vehicle control (human PBMCs; [23]): 5.9* | IFN-γ, ratio relative to vehicle control (human PBMCs; [23]): 3.7* | IL-2, ratio relative to vehicle control (human PBMCs; [23]): 2.2* | TNF, ratio relative to vehicle control (human PBMCs; [23]): 3.8*
